Like-named read-outs stand apart in the source and are kept apart here.

Series [1] concerns the target T1, human LTA4H (Homo sapiens, UniProt P09960).
T1 sequence (P09960 1-611): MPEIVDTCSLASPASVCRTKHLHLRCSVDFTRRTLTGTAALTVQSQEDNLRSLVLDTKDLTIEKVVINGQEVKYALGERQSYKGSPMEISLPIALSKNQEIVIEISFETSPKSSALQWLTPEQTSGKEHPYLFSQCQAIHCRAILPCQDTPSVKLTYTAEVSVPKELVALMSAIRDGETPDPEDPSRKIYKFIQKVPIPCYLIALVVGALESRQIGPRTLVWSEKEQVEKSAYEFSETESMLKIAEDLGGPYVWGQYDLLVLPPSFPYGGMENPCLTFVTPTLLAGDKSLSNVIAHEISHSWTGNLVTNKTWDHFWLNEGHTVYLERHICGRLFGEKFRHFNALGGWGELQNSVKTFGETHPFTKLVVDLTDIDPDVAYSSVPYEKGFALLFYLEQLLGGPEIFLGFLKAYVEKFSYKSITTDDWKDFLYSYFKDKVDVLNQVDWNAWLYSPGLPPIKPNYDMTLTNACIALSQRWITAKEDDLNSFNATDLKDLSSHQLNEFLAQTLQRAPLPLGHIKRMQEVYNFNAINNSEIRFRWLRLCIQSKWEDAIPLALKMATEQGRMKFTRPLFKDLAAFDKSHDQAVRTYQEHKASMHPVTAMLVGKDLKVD
Nature of the series: Human LTA4H enzyme assay (Arg-AMC substrate). It counts as biochemical. The conditions noted are these: Arg-AMC 600 μM, 9 nM human LTA4H, 15 min pre-incubation; mean values of at least 3 measurements; read-out: ArgAMC IC50. As to the method: a) Human LTA4H Enzyme Assay:
[…] (LTA4H) catalyzes the vinylogous hydrolysis of the epoxide, leukotriene A4 (LTA4) into the pro-inflammatory mediator LTB4.
For compound testing, compounds are delivered as 10 mM stock solutions in 90% DMSO (10% water) in matrix tubes. […] A final substrate concentration of 600 μM, which is around the KM value of Arg-AMC, at a final enzyme concentration of 9 nM is chosen. Upon addition of the substrate, the plate is immediately placed in a fluorescence reader and the fluorescence is measured every 10 minutes for 60 minutes using the filter setting λ excitation=380 nm and A emission=460 nm. […] Raw data is converted to rate (moles per minute) using the AMC calibration curve calculated from the AMC standards. The data is analyzed in GraphPad Prism (GraphPad software Inc.) using non-linear regression to determine IC50 values of LTA4H inhibitors.

The subject of series [2] is LTB4 biosynthesis in human whole blood. The series can be described thus: Human whole blood assay (hWB), inhibition of LTB4 biosynthesis. The note with it: read-out: hWB IC50. It counts as cell-based. As to the method: b) Human Whole Blood Assay:
Compounds are tested in a human whole blood assay (hWB) to test their ability to inhibit LTB4 biosynthesis in a human cellular system. To this end, fresh blood is collected in heparinized vacutainers by venipuncture from volunteers. Blood is diluted 1:3 with RPM (Roswell Park Memorial Institute) medium and aliquots of 200 μL are transferred to 96-well round bottom cell culture plates. For compound testing, compounds are delivered as 10 mM stock solutions in 90% DMSO in matrix tubes. […] 4 μL of compound dilution or vehicle is added to 200 μL of blood and incubated for 4 hours at 37° C. in a humidified incubator. […] Incubation is terminated by centrifugation at 300 g for 10 min at 22° C. Plasma supernatant is taken and transferred to a 96 well plate for eicosanoid determination by ELISA (Assay designs) according to the manufacturer's protocol after 1:20 dilution in assay buffer. The data is analyzed in GraphPad Prism (GraphPad software Inc.) using non-linear regression to determine IC50 values of LTA4H inhibitors.

Series [3] can be described thus: Hygroscopicity by DVS. The conditions noted are these: for Hygroscopicity (DVS), moisture / water vapor absorbed: at 95% RH. The class given is physicochemical.
Series [4] in a line: Loss on drying by TGA after storage at 92 % RH. The class given is physicochemical. The conditions noted are these: heating rate 10 K/min, % @ °C, temperature in the line below (100, 230, 170, 195 °C). As to the method: Thermoaravimetric Analysis (TGA):
TGA curves were obtained using a TA-instrument Q5000. 0.5-2 mg of sample was placed into an open aluminum pan. The TGA curve was measured at 10° C./min between 30-300° C. The LoD (Loss of drying) was calculated between 30° C. and 100° C. or 150° C. The weight loss is plotted against the measured sample temperature. Temperatures are reported in degrees Celsius (° C.) and weight loss in %.

Setting [5] is: human blood diluted 1:3, 4 hours with compound, 10 μg/ml A23187 for 15 min, eicosanoid by ELISA.

`N[C@H](CO)Cn1nnc(-c2ccc(Oc3ncc(-c4ccn[nH]4)cc3F)cn2)n1` [Example 22, (S)-2-amino-3-(5-(5-((3-fluoro-5-(1H-pyrazol-5-yl)pyridin-2-yl)oxy)pyridin-2-yl)-2H-tetrazol-2-yl)propan-1-ol]: the results for the half-maximal inhibitory concentration (IC50) in series [1] and in series [2] (setting [5]) were 2.7 nM and 89 nM, respectively.

For `N[C@H](CO)Cn1ccc(-c2ccc(Oc3ncc(Cl)cc3F)cn2)n1` [Example 23, (S)-2-amino-3-(3-(5-((5-chloro-3-fluoropyridin-2-yl)oxy)pyridin-2-yl)-1H-pyrazol-1-yl)propan-1-ol], the IC50 in series [1] is 37.6 nM; in series [2] (setting [5]), 753 nM.

In the case of `N[C@H](CO)Cn1nnc(-c2ccc(Oc3ccc(Cl)cc3)cc2)n1` [Example 27, (S)-2-Amino-3-(5-(4-(4-chlorophenoxy)phenyl)-2H-tetrazol-2-yl)propan-1-ol], the IC50 in series [1] stood at 3.3 nM; in series [2] (setting [5]) it was 214 nM.

As for `N[C@H](CO)Cn1nnc(-c2ccc(Oc3ccc(C4CC4)cn3)cc2)n1` [Example 28, (S)-2-Amino-3-(5-(4-((5-cyclopropylpyridin-2-yl)oxy)phenyl)-2H-tetrazol-2-yl)propan-1-ol], the half-maximal inhibitory concentration (IC50) in series [1] worked out at 6.2 nM; in series [2] (setting [5]), 504 nM.

On to `N[C@@H](CO)Cn1nnc(-c2ccc(Oc3ccc(Cl)cn3)cc2)n1` [Example 31, (R)-2-Amino-3-(5-(4-((5-chloropyridin-2-yl)oxy)phenyl)-2H-tetrazol-2-yl)propan-1-ol], for which the values for the IC50 in series [1] and in series [2] (setting [5]) were 4.5 nM and 179 nM, respectively.

Take `N[C@H](CO)Cn1nnc(-c2ccc(Oc3ccc(Br)cn3)cc2)n1` [Example 33, (S)-2-Amino-3-(5-(4-((5-bromopyridin-2-yl)oxy)phenyl)-2H-tetrazol-2-yl)propan-1-ol]: the results for the half-inhibitory concentration (IC50) in series [1] and in series [2] (setting [5]) were 2.4 nM and 290 nM, respectively.

As for `N[C@H](CO)Cn1nnc(-c2ccc(Oc3ccc(Cl)cn3)cc2)n1` [Example 34, (S)-2-Amino-3-(5-(4-((5-chloropyridin-2-yl)oxy)phenyl)-2H-tetrazol-2-yl)propan-1-ol], the half-inhibitory concentration (IC50) was found to be 4 nM in series [1] and 800 nM in series [2] (setting [5]).

`N[C@H](CO)Cn1ccc(-c2ccc(Oc3ccc(-c4ccn[nH]4)cn3)cc2)n1` [Example 36]: the half-inhibitory concentration (IC50) in series [1] was found to be 2.9 nM; in series [2] (Homo sapiens) it was 60 nM.

On to `N[C@H](CO)Cn1ccc(-c2ccc(Oc3ncc(-c4cc[nH]n4)cc3F)cc2)n1` [Example 37, (S)-2-amino-3-(3-(4-((3-fluoro-5-(1H-pyrazol-5-yl)pyridin-2-yl)oxy)phenyl)-1H-pyrazol-1-yl)propan-1-ol], for which the IC50 in series [1] worked out at 2.6 nM; in series [2] (setting [5]) it was 47 nM.

As for `N[C@H](CO)Cc1nnn(-c2ccc(Oc3ncc(-c4ccn[nH]4)cc3F)cc2)n1` [Example 40, (S)-2-amino-(2-(4-((3-fluoro-5-(1H-pyrazol-5-yl)pyridin-2-yl)oxy)phenyl)-2H-tetrazol-5-yl)propan-1-ol], the half-maximal inhibitory concentration (IC50) was found to be 2.6 nM in series [1] and 62 nM in series [2] (setting [5]).

Consider `N[C@H](CO)Cn1ccc(-c2ccc(Oc3ncc(-c4cc[nH]n4)cc3F)cc2)n1` [Example 42, (S)-2-amino-3-(3-(4-((3-fluoro-5-(1H-pyrazol-3-yl)pyridin-2-yl)oxy)phenyl)-1H-pyrazol-1-yl)propan-1-ol], for which the “Hygroscopicity (DVS), moisture reversibly absorbed” value in series [3] (above 70% RH, transforming into a hydrated form) came out at 3%. Also, the “Hygroscopicity (DVS), moisture / water vapor absorbed” value in series [3] was 2.97 @ 95%. Also, in series [4] (listed as Ex 42), the “Loss on drying by TGA, After 1 day at 92 % RH” value (shortened to “Loss on drying … at 92 % RH”) was 2.46 @ %.

As for `N[C@H](CO)Cn1ccc(-c2ccc(Oc3ncc(-c4ccn[nH]4)cc3F)cc2)n1` [Example 43, (S)-2-amino-3-(3-(4-((3-fluoro-5-(1H-pyrazol-5-yl)pyridin-2-yl)oxy)phenyl)-1H-pyrazol-1-yl)propan-1-ol], in series [3] (listed as hydrochloride salt (Form E)), the “Hygroscopicity (DVS), moisture / water vapor absorbed” value came to 0.6%. Besides, the “Loss on drying … at 92 % RH” value in series [4] (listed as Ex 43) was 0.30 @ %.

In the case of `N[C@H](CO)Cn1ccc(-c2ccc(Oc3ncc(-c4ccn[nH]4)cc3F)cc2)n1` [Example 44, (S)-2-amino-3-(3-(4-((3-fluoro-5-(1H-pyrazol-3-yl)pyridin-2-yl)oxy)phenyl)-1H-pyrazol-1-yl)propan-1-ol], the “Hygroscopicity (DVS), moisture / water vapor absorbed” value in series [3] is 0.32% @ 95% RH; in series [3] (listed as hippuric acid salt (Form B)), “about 0.3%”. Also, in series [4] (listed as Ex 44), the “Loss on drying … at 92 % RH” value is 0.21 @ %.

Turning to `N[C@H](CO)Cn1ccc(-c2ccc(Oc3ncc(-c4ccn[nH]4)cc3F)cc2)n1` [Example 45, (S)-2-amino-3-(3-(4-((3-fluoro-5-(1H-pyrazol-5-yl)pyridin-2-yl)oxy)phenyl)-1H-pyrazol-1-yl)propan-1-ol], the “Hygroscopicity (DVS), moisture / water vapor absorbed” value in series [3] (listed as Modification A) is reported as “about 0.5%”; in series [3] (listed as hippurate salt (Form A)), 0.5%.

With `N[C@H](CO)Cn1ccc(-c2ccc(Oc3ncc(-c4cc[nH]n4)cc3F)cc2)n1` [Example 46, (S)-2-amino-3-(3-(4-((3-fluoro-5-(1H-pyrazol-3-yl)pyridin-2-yl)oxy)phenyl)-1H-pyrazol-1-yl)propan-1-ol], in series [4] (listed as Ex 46), the “Loss on drying … at 92 % RH” value is listed as 0.96 @ %.

Values taken from patent publication US11932630B2, “Heteroaryl aminopropanol derivatives” (NOVARTIS AG, priority 2021, dated 2024).
